Measured values published in patent US20140357512A1, “HISTONE DEACETYLASE (HDAC) BIOMARKERS IN MULTIPLE MYELOMA” (priority 2013, published 2014).

Tested on: human myeloma cell line MM.1S
Test: SILAC acetylated-lysine peptide profiling, HDAC inhibitor vs DMSO (light/heavy ratio)
Assay type: cell-based
Excerpt: An embodiment of the invention comprises utilizing the SILAC method in order to quantitate changes in protein expression between two or more populations of cells. The SILAC method is a technique based on mass spectrometry that detects differences in protein abundance among samples using non-radioactive isotopic labeling. The SILAC method is known in the art, and described in detail in Ong et al., “Stable Isotope Labeling by Amino Acids in Cell Culture, SILAC, as a Simple and Accurate Approach to Expression Proteomics”, Molecular & Cellular Proteomics, vol. 1, pp. 376-386 (2002), which is incorporated herein by reference in its entirety.
Briefly, the SILAC method involves growing two populations of cells in cell culture. The first population of cells is grown in growth media containing normal amino acids (“normal media”). The second population of cells is grown in media lacking a standard essential amino acid (such as lysine), but is then supplemented with a non-radioactive, isotopically labeled form of that essential amino acid (such as lysine labeled with ^13C atoms, rather than normal ^12C atoms), which is called “heavy media”. When the two populations of cells are each growing in the medium, they incorporate the amino acids into all of their proteins. The growth of cells maintained in the heavy media is no different from that in normal media. All peptides containing the heavy amino acids are heavier than their normal counterparts. The cells from each of the two populations of cells are lysed. The lysates from each of the two cell populations are then combined. The combined cell lysates are then analyzed by mass spectrometry. Pairs of chemically identical peptides of different stable isotope composition can be differentiated in a mass spectrometer due to their difference in mass. The ratio of peak intensities in the mass spectrum for such peptide pairs reflects the abundance ratio for the two proteins.
This example describes SILAC studies that were performed to compare the effects of three different HDAC inhibitors (Compound A, Compound B, and tubastatin A) to a control on a human multiple myeloma cell line. The HDAC inhibitors were also compared amongst themselves to determine differences in their effects.
A human myeloma cell line MM.1S was grown using either ^12C (light) or ^13C (heavy) lysine containing culture medium. The “heavy” cells were treated with DMSO as the control, and the “light” cells were treated with a single HDAC inhibitor at 37° C. for 6 hours. The heavy and light cells were lysed, and the lysates were mixed in 1:1 ratio and digested with the protease trypsin. The acetylated lysine containing peptides (due to the action of the HDAC inhibitor) in the digested peptide pool were captured by a non-specific anti-acetylated lysine antibody cocktail (the antibodies identify both light and heavy acetylated peptides), and subjected to mass spectrometry analysis in order to identify thousands of individual peptides.
Thousands of peptides were identified in pairs (^12C and ^13C) due to their known mass differences. The amino acid sequence and quantitative ratio (Light/Heavy) of a given peptide in two differentially treated cell lysates were then determined and annotated with their possible protein (gene) sources.
As stated above, three HDAC inhibitors (Compound A, Compound B, and Tubastatin A) were used. Thus, the SILAC method was performed three times, with a different HDAC inhibitor compared to a control each time. Accordingly, there are three pairs of quantitative data in the table below, i.e., Compound A:DMSO, Compound B:DMSO, and Tubastatin A:DMSO. A cut-off of 1.30 fold of change (increase or decrease) was then used to determine “changed” or “+” in the table, and any peptides with a fold of change less than 1.3 fold were determined to be “unchanged” or “0” in the table. Those peptides that were not identified were marked as “NA” in the table. […]

For CN1CCc2c(c3ccccc3n2Cc2ccc(C(=O)NO)cc2)C1 [Tub A], the “light to heavy ratio (L/H ratio), log 2 scale, acetylated peptide VGDK(ac)VLLPEYGGTK (SEQ ID NO: 773)” value (10 kDa heat shock protein mitochondrial [70], gene HSPE1, drug:DMSO) was 0.00, the “light to heavy ratio (L/H ratio) of acetylated peptide IQEVLK(ac)HAR (SEQ ID NO: 264)” value (39S ribosomal protein L20 mitochondrial [26], MRPL20, drug:DMSO) was 0.38 log 2 and the “light to heavy ratio (L/H ratio) of acetylated peptide FK(ac)LITEDVQGK (SEQ ID NO: 287)” value (40S ribosomal protein S3a [85], SNORD73A, RPS3A, drug:DMSO) was −0.66 log 2. The “light to heavy ratio (L/H ratio) of acetylated peptide KDVHMPK(ac)HPELADK (SEQ ID NO: 353)” value (40S ribosomal protein S10 [31], RPS10, drug:DMSO) was 0.00 log 2, the “light to heavy ratio (L/H ratio) of acetylated peptide NK(ac)IAGYVTHLMK (SEQ ID NO: 559)” value (40S ribosomal protein S17 [49], gene RPS17, RPS17L, inhibitor:DMSO) was 0.00 log 2 and the “light to heavy ratio (L/H ratio) of acetylated peptide GIVLEK(ac)VGVEAK (SEQ ID NO: 320)” value (40S ribosomal protein S23 [54], RPS23, drug:DMSO) was −0.55 log 2. For the same compound, the “light to heavy ratio (L/H ratio), log 2 scale, acetylated peptide ALEK(ac)IDLK (SEQ ID NO: 813)” value (60S ribosomal protein L3 [362], gene SNORD43, RPL3, drug:DMSO) was 0.00, the “light to heavy ratio (L/H ratio) of acetylated peptide IPK(ac)HLTDAYFK (SEQ ID NO: 259)” value (60S ribosomal protein L6 [211], RPL6, drug:DMSO) was −0.63 log 2 and the “light to heavy ratio (L/H ratio) of acetylated peptide GPLDK(ac)WR (SEQ ID NO: 622)” value (60S ribosomal protein L10-like [208], gene RPL10L, inhibitor:DMSO) was 0.00 log 2. For the same compound, the “light to heavy ratio (L/H ratio), log 2 scale, acetylated peptide YMVK(ac)SCGK (SEQ ID NO: 811)” value (60S ribosomal protein L10 [78], gene SNORA70, RPL10, drug:DMSO) was 0.00, the “light to heavy ratio (L/H ratio) of acetylated peptide VITEEEK(ac)NFK (SEQ ID NO: 522)” value (60S ribosomal protein L13 [174], gene RPL13, inhibitor:DMSO) was 0.00 log 2 and the “light to heavy ratio (L/H ratio) of acetylated peptide LAAIVAK(ac)QVLLGR (SEQ ID NO: 505)” value (60S ribosomal protein L13a [25], gene SNORD32A, RPL13A, SNORD33, SNORD34, inhibitor:DMSO) was 0.00 log 2. The “light to heavy ratio (L/H ratio) of acetylated peptide K(ac)FAYLGR (SEQ ID NO: 614)” value (60S ribosomal protein L13a [134], gene SNORD32A, RPL13A, SNORD33, SNORD34, inhibitor:DMSO) was 0.00 log 2, the “light to heavy ratio (L/H ratio), log 2 scale, acetylated peptide LAHEVGWK(ac)[…] (SEQ ID NO: 812)” value (60S ribosomal protein L13a [148], gene SNORD32A, RPL13A, SNORD33, SNORD34, drug:DMSO) was 0.00 and the “light to heavy ratio (L/H ratio) of acetylated peptide RNPDTQWITK(ac)PVHK (SEQ ID NO: 581)” value (60S ribosomal protein L15 [153], gene RPL15, inhibitor:DMSO) was 0.00 log 2. The “light to heavy ratio (L/H ratio), log 2 scale, acetylated peptide YSVDIPLDK(ac)TVVNK (SEQ ID NO: 807)” value (60S ribosomal protein L27 [93], gene RPL27, drug:DMSO) was 0.00, the “light to heavy ratio (L/H ratio), log 2 scale, acetylated peptide TVVNK(ac)DVFR (SEQ ID NO: 766)” value (60S ribosomal protein L27 [98], gene RPL27, drug:DMSO) was 0.00 and the “light to heavy ratio (L/H ratio) of acetylated peptide NCSSFLIK(ac)R (SEQ ID NO: 558)” value (60S ribosomal protein L28 [19], gene RPL28, inhibitor:DMSO) was 0.00 log 2. The “light to heavy ratio (L/H ratio) of acetylated peptide LWSK(ac)AIFAGYK (SEQ ID NO: 538)” value (60S ribosomal protein L35a [8], gene RPL35A, inhibitor:DMSO) was 0.00 log 2, the “light to heavy ratio (L/H ratio) of acetylated peptide AIFAGYK(ac)R (SEQ ID NO: 300)” value (60S ribosomal protein L35a [15], RPL35A, drug:DMSO) was 0.44 log 2 and the “light to heavy ratio (L/H ratio) of acetylated peptide VMEHFIK(ac)LYK (SEQ ID NO: 276)” value (78 kDa glucose-regulated protein [268], HSPA5, drug:DMSO) was −0.66 log 2. The “light to heavy ratio (L/H ratio) of acetylated peptide AK(ac)FEELNMDLFR (SEQ ID NO: 266)” value (78 kDa glucose-regulated protein [326], HSPA5, drug:DMSO) was −0.52 log 2, the “L/H ratio of acetylated peptide” value ((ac)AVPPTYADLGK(ac)SAR (SEQ ID NO: 464), Voltage-dependent anion-selective channel protein 1 [12], VDAC1) was 0.00 log 2 and the “light to heavy ratio (L/H ratio) of acetylated peptide, log 2 scale” value ((ac)SIGVPIK(ac)VLHEAEGHIVTCETNTGEVYR (SEQ ID NO: 224), Small nuclear ribonucleoprotein Sm D3 [8], SNRPD3) was 0.40. The “L/H ratio of acetylated peptide” value ((ac)SSNECFK(ac)CGR (SEQ ID NO: 379), Isoform 1 of Cellular nucleic acid-binding protein [8], CNBP) was 0.00 log 2, the “light to heavy ratio (L/H ratio) of acetylated peptide, log 2 scale” value ((ac)SVFGK(ac)LFGAGGGK (SEQ ID NO: 143), Charged multivesicular body protein 4b [6], CHMP4B) was −0.39 and the “L/H ratio of acetylated peptide IHNFGLIQEK(ac)LAR (SEQ ID NO: 19)” value (ACADVL [428], log 2 scale, drug vs DMSO) was −0.60. For the same compound, the “L/H ratio of acetylated peptide NLQK(ac)EVIHR (SEQ ID NO: 125)” value (ACOX1 [504], log 2 scale, drug vs DMSO) was 0.54, the “L/H ratio of acetylated peptide LDHLAEK(ac)FR (SEQ ID NO: 20)” value (ACTN1 [398], log 2 scale, drug vs DMSO) was −0.51 and the “L/H ratio of acetylated peptide LVDQSGPPHEPK(ac)FVYQAK (SEQ ID NO: 126)” value (ADAR [757], log 2 scale, drug vs DMSO) was −0.41. For the same compound, the “light to heavy ratio (L/H ratio) of acetylated peptide, log 2 scale” value (ADINTK(ac)WAATR (SEQ ID NO: 202), Ribosomal protein L14 variant [85], RPL14) was −0.50, the “light to heavy ratio (L/H ratio) of acetylated peptide, log 2 scale” value (ADK(ac)DYHFK (SEQ ID NO: 191), Isoform 2 of Nucleophosmin [27], NPM1) was −0.60 and the “light to heavy ratio (L/H ratio) of acetylated peptide IFGSNK(ac)WTTEQQQR (SEQ ID NO: 306)” value (ADP-ribosylation factor-like protein 6-interacting protein 1 [96], ARL6IP1, drug:DMSO) was 0.45 log 2. For the same compound, the “light to heavy ratio (L/H ratio) of acetylated peptide TTLLYK(ac)LK (SEQ ID NO: 624)” value (ADP-ribosylation factor-like protein 11 [31], gene ARL11, inhibitor:DMSO) was 0.00 log 2, the “light to heavy ratio (L/H ratio) of acetylated peptide IFK(ac)SDGLR (SEQ ID NO: 280)” value (ADP/ATP translocase 1 [166], SLC25A4, drug:DMSO) was 0.48 log 2 and the “light to heavy ratio (L/H ratio) of acetylated peptide ITK(ac)SDGIR (SEQ ID NO: 587)” value (ADP/ATP translocase 3 [166], gene SLC25A6, inhibitor:DMSO) was 0.00 log 2. The “L/H ratio of acetylated peptide HLSDSINQK(ac)HFEQAIER” value (AFG3L2 [543], log 2 scale, drug vs DMSO) was −0.39, the “light to heavy ratio (L/H ratio) of acetylated peptide, log 2 scale” value (AFYK(ac)SFSK (SEQ ID NO: 170), Endoplasmin [360], HSP90B1) was −1.00 and the “light to heavy ratio (L/H ratio) of acetylated peptide, log 2 scale” value (AGVNTVTTLVENK(ac)K (SEQ ID NO: 206), 60S ribosomal protein L7a [150], RPL7A, SNORD24) was −0.42. For the same compound, the “light to heavy ratio (L/H ratio) of acetylated peptide, log 2 scale” value (AGYNVK(ac)QLFR (SEQ ID NO: 199), Isoform 1 of Ras-related protein Rab-6A [164], RAB6A) was 0.45, the “light to heavy ratio (L/H ratio) of acetylated peptide, log 2 scale” value (AHPVFYQGTYSQALNDAK(ac)R (SEQ ID NO: 153), FAS-associated factor 2 [167], FAF2) was −0.48 and the “L/H ratio of acetylated peptide LK(ac)DISTLEPLKK (SEQ ID NO: 21)” value (ANP32B [101], log 2 scale, drug vs DMSO) was −0.56. The “L/H ratio of acetylated peptide QRQEVCQSYK(ac)SLYGK (SEQ ID NO: 22)” value (ANXA6 [63], log 2 scale, drug vs DMSO) was 0.68 and the “L/H ratio of acetylated peptide LGTDESK(ac)FNAVLCSR (SEQ ID NO: 7)” value (ANXA11 [478], log 2 scale, drug vs DMSO) was −0.44.
